# Assay results reported in PubChem BioAssay AID1199 (EPA DSSTox, 2008).
# Active and inactive are the calls of the source.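 How the source made its calls: active means a tumour-causing dose and a tumour site recorded for mice in at least one sex group; inconclusive means only government mouse studies exist and were judged inadequate; inactive means mouse studies exist but none gave tumours.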
# Tested on: mouse carcinogenicity bioassay, TD50 from CPDB
# Test: DSSTox (CPDBAS) Carcinogenic Potency Database Summary Mouse Bioassay Results
# Settings: not given
# Summary of the method: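 Values are TD50 carcinogenic potencies from mouse chronic bioassays, taking the most positive result for each sex-species. Sources are published literature and NCI/NTP studies; target sites reflect author-reported positive findings.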
row,SMILES,Potency
1,C#CC(C)(C)NC(=O)c1cc(Cl)cc(Cl)c1,0.547 mmol/kg/day
2,c1ccc2c(c1)ccc1cc3c(ccc4ccccc43)cc12,0.0211 mmol/kg/day
3,COS(C)(=O)=O,0.289 mmol/kg/day

# Same assay, conditions: TD50_Mouse_Note: TD50 is harmonic mean of more than one positive test; TD50_Mouse_mmol was not calculated for this mixture, but Activiity; TargetSites_Mouse_Female: liver
row,SMILES,outcome
1,C=C1C(CCl)(CCl)C2(Cl)C(Cl)C(Cl)C1(Cl)C2(Cl)Cl (centres undefined),active; liver

# Same assay, conditions: TD50_Mouse_Note: TD50 is harmonic mean of more than one positive test; TargetSites_Mouse_Female: all tumor bearing animals
row,SMILES,Potency
1,OCCN(CCO)CCO,0.67 mmol/kg/day

# Same assay, conditions: TD50_Mouse_Note: TD50 is harmonic mean of more than one positive test; TargetSites_Mouse_Female: esophagus; oral cavity; stomach
row,SMILES,Potency
1,c1ccc2c(c1)cc1ccc3cccc4ccc2c1c34,0.0138 mmol/kg/day

# Same assay, conditions: TD50_Mouse_Note: TD50 is harmonic mean of more than one positive test; TargetSites_Mouse_Female: harderian gland; mammary gland; skin; subcutaneous tissue; uterus
row,SMILES,Potency
1,OCC1CO1 (centres undefined),0.468 mmol/kg/day

# Same assay, conditions: TD50_Mouse_Note: TD50 is harmonic mean of more than one positive test; TargetSites_Mouse_Female: hematopoietic system
row,SMILES,Potency
1,NC(=O)N(CCO)N=O,0.00615 mmol/kg/day

# Same assay, conditions: TD50_Mouse_Note: TD50 is harmonic mean of more than one positive test; TargetSites_Mouse_Female: kidney; stomach
row,SMILES,Potency
1,O=C(O)/C=C/c1ccc(O)c(O)c1,27.2 mmol/kg/day

# Same assay, conditions: TD50_Mouse_Note: TD50 is harmonic mean of more than one positive test; TargetSites_Mouse_Female: large intestine; liver; vascular system
row,SMILES,Potency
1,Cc1ccccc1[N+](=O)[O-],0.933 mmol/kg/day

# Same assay, conditions: TD50_Mouse_Note: TD50 is harmonic mean of more than one positive test; TargetSites_Mouse_Female: liver
row,SMILES,Potency
1,ClC(Cl)C(Cl)Cl,0.228 mmol/kg/day
2,Nc1nc(N)c2nc(-c3ccccc3)c(N)nc2n1,0.238 mmol/kg/day
3,Cc1cc(O)c2c(c1O)C(=O)C13C(=C2O)C(=O)C2C(O)C1C1C(O)C3C(=O)C3=C(O)c4c(O)cc(C)c(O)c4C(=O)C321 (centres undefined),0.0324 mmol/kg/day
4,NC(=O)OCC(COC(N)=O)c1ccccc1,31.1 mmol/kg/day
5,Nc1cc(Cl)c(N)c(Cl)c1,4.54 mmol/kg/day
6,Brc1cc(Br)c(-c2cc(Br)c(Br)cc2Br)cc1Br,0.000529 mmol/kg/day
7,O=C(O)c1cc(N=Nc2ccc(S(=O)(=O)Nc3ccccn3)cc2)ccc1O,3.14 mmol/kg/day

# Same assay, conditions: TD50_Mouse_Note: TD50 is harmonic mean of more than one positive test; TargetSites_Mouse_Female: liver; lung; stomach
row,SMILES,Potency
1,c1ccc2occc2c1,0.212 mmol/kg/day

# Same assay, conditions: TD50_Mouse_Note: TD50 is harmonic mean of more than one positive test; TargetSites_Mouse_Female: liver; vascular system
row,SMILES,Potency
1,Nc1ccc2c(n1)[nH]c1ccccc12,0.272 mmol/kg/day

# Same assay, conditions: TD50_Mouse_Note: TD50 is harmonic mean of more than one positive test; TargetSites_Mouse_Female: lung
row,SMILES,Potency
1,NNC(=O)c1cccnc1,1.66 mmol/kg/day
2,CC(=O)NN,0.133 mmol/kg/day
3,Clc1ccc(C(c2ccc(Cl)cc2)C(Cl)Cl)cc1,0.0959 mmol/kg/day
4,CCCCNN,0.0971 mmol/kg/day

# Same assay, conditions: TD50_Mouse_Note: TD50 is harmonic mean of more than one positive test; TargetSites_Mouse_Female: lung; stomach
row,SMILES,Potency
1,CCCCN(N)CCCC,0.313 mmol/kg/day

# Same assay, conditions: TD50_Mouse_Note: TD50 is harmonic mean of more than one positive test; TargetSites_Mouse_Female: small intestine
row,SMILES,Potency
1,O=C1C2CC=CCC2C(=O)N1SC(Cl)(Cl)Cl (centres undefined),7.02 mmol/kg/day

# Same assay, conditions: TD50_Mouse_Note: TD50 is harmonic mean of more than one positive test; TargetSites_Mouse_Female: thyroid gland
row,SMILES,Potency
1,COc1ccc(N)cc1N,3.83 mmol/kg/day

# Same assay, conditions: TD50_Mouse_Note: TD50 is harmonic mean of more than one positive test; TargetSites_Mouse_Female: vascular system
row,SMILES,Potency
1,NNc1ccccc1,0.493 mmol/kg/day

# Same assay, conditions: TD50_Mouse_Note: TD50 is harmonic mean of more than one positive test; greater than ten-fold variation among TD50 values for positive res; TargetSites_Mouse_Female: liver
row,SMILES,Potency
1,C1COCCO1,2.32 mmol/kg/day

# Same assay, conditions: TD50_Mouse_Note: TD50 is harmonic mean of more than one positive test; greater than ten-fold variation among TD50 values for positive res; TargetSites_Mouse_Female: liver; lung
row,SMILES,Potency
1,O=S(=O)(O)O,0.0583 mmol/kg/day

# Same assay, conditions: TD50_Mouse_Note: TD50 is harmonic mean of more than one positive test; harmonic mean of TD50 includes a value for upper 99% confidence li; TargetSites_Mouse_Female: lung
row,SMILES,Potency
1,NNC=O,0.606 mmol/kg/day

# Same assay, conditions: TD50_Mouse_Note: no positive results
row,SMILES,outcome
1,N[C@@H](CCC(=O)O)C(=O)O,inactive; no positive results
2,O.O.O.O.O.O.O.O.O=S(=O)([O-])[O-].O=S(=O)([O-])[O-].O=S(=O)([O-])[O-].[Cd+2].[Cd+2].[Cd+2],inactive; no positive results
3,[Se],inactive
4,NC(CCC(=O)O)C(=O)O (centres undefined),inactive; no positive results

# Same assay, conditions: TD50_Mouse_Note: no positive results; TargetSites_Mouse_Female: no positive results
row,SMILES,outcome
1,O=C1c2ccccc2C(=O)c2ccccc21,inactive; no positive results
2,CCCCOC(=O)c1ccccc1C(=O)OCc1ccccc1,inactive; no positive results
3,Clc1ccccc1,inactive; no positive results
4,COc1ccc(N)c(C)c1,inactive; ntp bioassay inadequate
5,O=NN(c1ccccc1)c1ccccc1,inactive; no positive results
6,c1ccc2sc(SSc3nc4ccccc4s3)nc2c1,inactive; no positive results
7,O=S(=O)([O-])[O-].[Cd+2],inactive
8,CNC(=O)Oc1cccc2ccccc12,inactive; no positive results
9,Nc1ccc(O)c([N+](=O)[O-])c1,inactive; no positive results
10,O=S(=O)(O)c1ccc(N=Nc2c(O)ccc3cc(S(=O)(=O)O)ccc23)cc1,inactive; no positive results
11,O=C(c1ccccc1)C(O)c1ccccc1 (centres undefined),inactive; no positive results
12,O=C1CCCO1,inactive; no positive results
13,Cn1c(=O)c2[nH]cnc2n(C)c1=O,inactive; no positive results
14,C=CC=O,inactive; no positive results
15,Cc1c(N(C)C)c(=O)n(-c2ccccc2)n1C,inactive; no positive results
16,ClCc1ccccn1,inactive; no positive results
17,O=C(CCl)c1ccccc1,inactive; no positive results
18,CN(C)C(=S)S,inactive; no positive results
19,COc1ccc([N+](=O)[O-])cc1N=Nc1c(O)c(C(=O)Nc2cccc([N+](=O)[O-])c2)cc2ccccc12,inactive; no positive results
20,C/C=C\c1ccc(OC)cc1,inactive
21,CC1=NN(c2ccccc2)C(=O)C1,inactive; no positive results
22,Cc1[nH]cnc1CSCCN=C(NC#N)N(C)N=O,inactive
23,CN(C)C(=S)S[Se](SC(=S)N(C)C)(SC(=S)N(C)C)SC(=S)N(C)C,inactive; no positive results

row,SMILES,outcome
1,CC(C)C[C@H]1C(=O)N2CCC[C@H]2[C@]2(O)O[C@](NC(=O)[C@@H]3C=C4c5cccc6[nH]c(Br)c(c56)C[C@H]4N(C)C3)(C(C)C)C(=O)N12,inactive; no positive results
2,C=C1C[C@]23C[C@@]1(O)CC[C@H]2[C@@]12C=C[C@H](O)[C@@](C)(C(=O)O1)[C@H]2[C@@H]3C(=O)O,inactive; no positive results
3,CCO,inactive; no positive results
4,CBr,inactive; no positive results
5,O=C1O[C@H]([C@@H](O)CO)C(O)=C1O,inactive; no positive results
6,CC(=O)C1C(=O)C=C(C)OC1=O (centres undefined),inactive; no positive results
7,CC(Oc1cc(Cl)ccc1Cl)C(=O)O (centres undefined),inactive; no positive results
8,CCC1CO1 (centres undefined),inactive; no positive results
9,NNc1ccccc1,inactive
10,O,inactive; no positive results
11,O=P(O)(O)O,inactive; no positive results
12,CC(C)(c1ccc(O)cc1)c1ccc(O)cc1,inactive; no positive results
13,OC[C@H]1O[C@H](O[C@]2(CCl)O[C@H](CCl)[C@@H](O)[C@@H]2O)[C@H](O)[C@@H](O)[C@H]1Cl,inactive; no positive results
14,OC[C@H]1O[C@@H]2O[C@H]3[C@H](O)[C@@H](O)[C@@H](O[C@H]4[C@H](O)[C@@H](O)[C@@H](O[C@H]5[C@H](O)[C@@H](O)[C@@H](O[C@H]6[C@H](O)[C@@H](O)[C@@H](O[C@H]7[C@H](O)[C@@H](O)[C@@H](O[C@H]8[C@H](O)[C@@H](O)[C@@H](O[C@H]1[C@H](O)[C@H]2O)O[C@@H]8CO)O[C@@H]7CO)O[C@@H]6CO)O[C@@H]5CO)O[C@@H]4CO)O[C@@H]3CO,inactive; no positive results
15,CN(C)C(=O)Nc1ccc(Cl)cc1,inactive; no positive results
16,C[C@](N)(Cc1ccc(O)c(O)c1)C(=O)O,inactive; no positive results
17,Clc1ccc2c(c1)C(c1ccccc1)=NCc1nncn1-2,inactive; no positive results
18,Nc1nc(N)nc(N)n1,inactive; no positive results
19,C[C@@H]1CCC[C@H](C)N1CCCC(O)(c1ccccc1)c1ccccn1 (some centres undefined),inactive; no positive results
20,CC1(C)[C@@H](OC2O[C@H](C(=O)O)[C@@H](O)[C@H](O)[C@H]2O[C@H]2O[C@H](C(=O)O)[C@@H](O)[C@H](O)[C@H]2O)CC[C@]2(C)[C@H]3C(=O)C=C4[C@@H]5C[C@@](C)(C(=O)O)CC[C@]5(C)CC[C@@]4(C)[C@]3(C)CC[C@@H]12 (some centres undefined),inactive; no positive results
21,COC(N)=O,inactive; no positive results
22,Nc1ncc([N+](=O)[O-])s1,inactive; no positive results
23,CCCCC(CC)COC(=O)COc1ccc(Cl)cc1Cl (centres undefined),inactive; no positive results

# Same assay, conditions: TD50_Mouse_Note: only experiment is NCI/NTP bioassay inadequate; TargetSites_Mouse_Female: NTP bioassay inadequate
row,SMILES,outcome
1,CNC[C@H](O)c1ccc(O)c(O)c1,ntp bioassay inadequate
2,Nc1nc(=S)c2ncn([C@H]3C[C@H](O)[C@@H](CO)O3)c2[nH]1,ntp bioassay inadequate

# Same assay, conditions: TD50_Mouse_Note: positive test results only by intraperitoneal or intravenous injection; TD50 is harmonic mean of more than one positive; TargetSites_Mouse_Female: lung
row,SMILES,Potency
1,N[C@@H](Cc1ccc(N(CCCl)CCCl)cc1)C(=O)O,0.000491 mmol/kg/day

# Same assay, conditions: TD50_Mouse_Note: positive test results only by intraperitoneal or intravenous injection; TargetSites_Mouse_Female: peritoneal cavity
row,SMILES,Potency
1,ClCOCC(COCCl)OCCl,0.0145 mmol/kg/day

# Same assay, conditions: TargetSites_Mouse_BothSexes: lung
row,SMILES,Potency
1,CC/C=C(/CC)[N+](=O)[O-],0.00268 mmol/kg/day

# Same assay, conditions: TargetSites_Mouse_BothSexes: no positive results
row,SMILES,outcome
1,Cc1cc(=O)[nH]c(=S)[nH]1,inactive

# Same assay, conditions: TargetSites_Mouse_Female: harderian gland; pituitary gland
row,SMILES,Potency
1,CC(I)C1OCC(CO)O1 (centres undefined),0.535 mmol/kg/day

# Same assay, conditions: TargetSites_Mouse_Female: liver
row,SMILES,Potency
1,CCCc1c(OCCCCc2nn[nH]n2)ccc(C(C)=O)c1O,0.352 mmol/kg/day
2,Nc1ccc(Cl)c(N)c1,8.63 mmol/kg/day

# Same assay, conditions: TargetSites_Mouse_Female: lung
row,SMILES,Potency
1,NNCc1ccccc1,0.437 mmol/kg/day

# Same assay, conditions: TargetSites_Mouse_Female: no positive results
row,SMILES,Potency
1,COc1nn(CSP(=S)(OC)OC)c(=O)s1,0.02 mmol/kg/day
2,CCNC(=O)Nc1ncc([N+](=O)[O-])s1,3.51 mmol/kg/day
3,CC(=O)OC[C@]12C[C@H](OC(=O)CC(C)C)C(C)=C[C@H]1O[C@@H]1[C@H](O)[C@@H](OC(C)=O)[C@@]2(C)C12CO2 (some centres undefined),0.00189 mmol/kg/day

# Same assay, conditions: TargetSites_Mouse_Female: ovary
row,SMILES,Potency
1,O=C1CN(/N=C/c2ccc([N+](=O)[O-])o2)C(=O)N1,5.88 mmol/kg/day
